Several values for one entry are separate records, joined by “and”; a condition that tells them apart may be missing. Identical values can stand only once. Like-named read-outs stand apart in the source and are kept apart here. Values belong to the compound of their own block, whether it stands above or below them.
Legend:
[1] = biological target: T1, wild-type mouse Pgp (MDR3) (Mus musculus, UniProt P21447)
Procedure: Atomic force microscopy (AFM) has been adapted for analyzing protein dynamics and structure, which has enabled the determination of conformational changes induced by ligands. In this study, Pgp reconstituted into liposomes was diluted in imaging buffer (20 mM HEPES, 100 mM NaCl, and 5 mM MgCl2; pH 7.4) to 100 nM. About 90 µL droplets of the diluted Pgp solution were deposited on cleaned […] (Corning, Corning, NY, USA), followed by 30 min of incubation at 25 °C. This step caused the proteoliposomes to rupture, forming a planar lipid bilayer on top of the mica surface. The samples were rinsed at least five times using the buffer exchange technique, wherein 90 µL of buffer was utilized. Next, AFM imaging of the EC-side and C-side domains of Pgp protrusions above the lipid bilayer was performed as previously described. For each of the selected CPTs used in this study, AFM imaging of the ligand-free Pgp (apoPgp) was performed first, then ligand was added, and imaging was repeated in nominally the same area. […] Only membrane-external protrusions that could be positively assigned as either EC or C-side domain features of Pgp were analyzed. All the AFM images were obtained in an imaging buffer at about 30 °C in tapping mode with biolever mini tips (BL-AC40TS, Olympus, Tokyo, Japan) installed on a commercial instrument (Asylum Research Cypher, Santa Barbara, CA, USA). The tip-sample force was kept below 100 pN to minimize the probability of protein distortion. The AFM images were analyzed with custom software written in Igor Pro 7 (Wavemetrics, Portland, OR, USA), as described previously. Kernel density estimation with Epanechnikov kernels in Igor Pro 7 software was used to generate smoothed histograms for further analysis. The histograms were fitted with a summation of Gaussian distributions. The Bayesian information criterion was used to select the best model after fitting with 1–5 Gaussian distributions as described previously (see Supporting Information).

[2] = tested on: LS513 cells; details: LS513 cells treated with BCRP and MRP2 inhibitors, versus SN-38; cited from earlier work
[3] = biological target: T1, wild-type mouse Pgp (MDR3); remark: listed apart in the source
Procedure: Acrylamide quenching of protein fluorescence was used to probe drug-induced Pgp conformational changes indirectly. For this assay, a solution containing 1 µM of Pgp reconstituted into liposomes was titrated with acrylamide. The preparation was carried out in Chifflet buffer (pH 7.4) supplemented with 2 mM DTT. The assay was performed both in the presence and absence of ligand(s). […] The fluorescence intensities were corrected for dilution, background, and inner filter effects using Equation (3). A Stern–Volmer plot of Fo(corrected)/F(corrected) versus the concentration of acrylamide added was generated. The slope of the curve, an indicator of the degree of quenching, is related to the Stern–Volmer’s constant (Ksv) by Equation (4). (4) Focorrected/Fcorrected=1+KsvQ where [Q] is the concentration of the quencher, acrylamide.

[4] = biological target: T1, wild-type mouse Pgp (MDR3); remark: listed apart in the source
Text: For a molecule that binds to the receptor, only the protons within a distance of 5 Å from the saturated protein receive noticeable saturation transfer. The saturation transferred from the receptor to the bound ligands can be detected upon dissociation as a saturation transfer difference (STD). The observed degree of saturation transferred inversely correlates with the distance between the ligand and the receptor and reflects the degree of interaction. Due to the high lipophilicity of most Pgp substrates, there is a high possibility of non-specific interactions between the ligands and liposomes used, which can interfere with the STD NMR spectrum observed. The STD NMR spectrum of the drug in the presence of liposomes was performed and subtracted from the STD ^1H NMR spectrum of the ligand in the presence of proteins reconstituted into liposomes to yield a STDD. […] All NMR experiments were carried out at 25 °C (unless otherwise stated) on a Varian INOVA 600 MHz NMR spectrometer installed with a 1H-detect broadband probe {HX}.
The control samples were identically prepared with liposomes instead of Pgp reconstituted in liposomes. […] The difference between the on-resonance and the off-resonance created the STD ^1H NMR spectrum. A control experiment consisting of liposomes and drugs was obtained under identical conditions and subtracted from the ^1H STD NMR spectrum of the reconstituted Pgp sample with the drug to generate the STDD ^1H NMR spectrum. […] The STDD amplification factor was calculated using Equation (5) below. (5) STDD Amplication Factor=l/PΔl/Io where Io is the amplitude of the ^1H NMR peaks, l is the ligand concentration, and P is the protein concentration.

[5] = biological target: T1, wild-type mouse Pgp (MDR3); assay: biochemical
[6] = biological target: T1, wild-type mouse Pgp (MDR3); details: for Decrease of protein fluorescence from the initial fluorescence: ex 295 nm; for Decrease of protein fluorescence: saturating AMPPNP
[7] = versus TPT; cited from earlier work
[8] = second-line chemotherapy, versus TPT; cited from earlier work
[9] = tested on: human tumor xenograft models; details: different human tumor xenograft models, versus TPT; cited from earlier work
[10] = 800 µM drug, 1 µM Pgp in liposomes, 25 °C

T1 sequence (P21447 whole entry, the tested form may be a part): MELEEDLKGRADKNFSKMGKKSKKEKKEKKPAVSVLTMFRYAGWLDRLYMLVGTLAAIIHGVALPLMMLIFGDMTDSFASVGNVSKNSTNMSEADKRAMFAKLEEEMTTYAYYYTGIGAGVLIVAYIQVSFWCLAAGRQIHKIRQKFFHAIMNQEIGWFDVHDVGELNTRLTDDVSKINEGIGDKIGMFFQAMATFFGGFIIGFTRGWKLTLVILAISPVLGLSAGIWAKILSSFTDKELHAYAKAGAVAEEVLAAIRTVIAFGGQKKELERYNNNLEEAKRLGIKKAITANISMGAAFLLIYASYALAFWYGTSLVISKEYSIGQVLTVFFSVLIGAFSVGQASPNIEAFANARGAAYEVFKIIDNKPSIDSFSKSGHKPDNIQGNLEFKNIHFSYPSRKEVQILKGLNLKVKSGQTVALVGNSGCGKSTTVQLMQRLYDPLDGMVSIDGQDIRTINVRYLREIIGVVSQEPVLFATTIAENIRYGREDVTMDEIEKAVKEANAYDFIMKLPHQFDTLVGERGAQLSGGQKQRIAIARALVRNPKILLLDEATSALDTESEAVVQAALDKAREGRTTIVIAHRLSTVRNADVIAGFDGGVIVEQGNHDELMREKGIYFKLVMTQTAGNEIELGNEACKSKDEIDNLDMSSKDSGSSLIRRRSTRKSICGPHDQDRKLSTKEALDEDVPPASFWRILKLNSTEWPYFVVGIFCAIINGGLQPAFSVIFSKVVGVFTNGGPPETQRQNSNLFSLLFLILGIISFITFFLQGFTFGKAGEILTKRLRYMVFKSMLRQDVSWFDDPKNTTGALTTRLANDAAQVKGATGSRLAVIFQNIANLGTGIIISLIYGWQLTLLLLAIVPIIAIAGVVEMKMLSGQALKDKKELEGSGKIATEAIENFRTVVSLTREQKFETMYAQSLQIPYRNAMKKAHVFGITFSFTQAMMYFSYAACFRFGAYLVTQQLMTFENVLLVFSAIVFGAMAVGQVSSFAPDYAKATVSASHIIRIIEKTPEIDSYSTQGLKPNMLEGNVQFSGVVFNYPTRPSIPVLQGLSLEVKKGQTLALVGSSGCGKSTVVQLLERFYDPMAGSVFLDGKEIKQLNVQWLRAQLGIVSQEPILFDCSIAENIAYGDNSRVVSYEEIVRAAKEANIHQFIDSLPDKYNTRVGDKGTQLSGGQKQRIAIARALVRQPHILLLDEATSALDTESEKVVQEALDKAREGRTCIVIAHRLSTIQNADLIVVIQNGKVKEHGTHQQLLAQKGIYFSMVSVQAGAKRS

SMILES: CC[C@@]1(O)C(=O)OCc2c1cc1n(c2=O)Cc2cc3c(CN(C)C)c(O)ccc3nc2-1 [TPT, Topotecan]
Probability density difference (∆PD) of tallest population relative to apo ([1]; 60 µM drug): 4.11 × 10^7
C-side height of tallest Pgp population in presence of drug ([1]; 60 µM drug, apo 74 ± 9 Å): 75 ± 7 Å
Relative efflux rate, times higher than SN-38 [2]: approximately 4 times
Ksv of acrylamide quenching of Pgp fluorescence ([3]; 60 µM drug, 3.2 mM AMPPNP): 0.71 ± 0.04 M⁻¹
Ksv of acrylamide quenching of Pgp fluorescence ([3]; 60 µM drug, absence of AMPPNP, apoPgp 1.58 ± 0.03): 0.78 ± 0.06 M⁻¹
Decrease in the Ksv value of apoPgp (acrylamide quenching) ([3]; 60 µM drug, no AMPPNP (Figure 4)): ~50%
Average STDD amplification factor [4, 10]: around 45
Highest STDD amplification factor [4, 10]: approximately 133
Kd ([5]; absence of AMPPNP): 2.47 ± 0.57 µM
Kd ([5]; saturating (3.2 mM) AMPPNP): 16 ± 3.27 µM
Decrease of protein fluorescence from the initial fluorescence ([6]; 100 µM drug, absence of AMPPNP): approximately 71.6%
Decrease of protein fluorescence ([6]; 100 µM drug): 61.0%
Stern–Volmer constant (Ksv) of drug-induced Pgp fluorescence quenching ([6]; absence of AMPPNP): 0.41 ± 0.09 µM⁻¹
Change of affinity for Pgp in the presence of AMPPNP ([6]; presence vs absence of AMPPNP): diminished by over threefold
Stern–Volmer constant (Ksv) of drug-induced Pgp fluorescence quenching ([6]; saturating (3.2 mM) AMPPNP): 0.06 ± 0.01 µM⁻¹

SMILES: Nc1ncnc2c1ncn2[C@@H]1O[C@H](COP(=O)([O-])OP(=O)([O-])NP(=O)([O-])[O-])[C@@H](O)[C@H]1O.[Li+].[Li+].[Li+].[Li+] [AMPPNP, Adenosine 5′-(β,γ-imido)triphosphate lithium salt]
Ksv of acrylamide quenching of Pgp fluorescence ([3]; Pgp with saturating (3.2 mM) AMPPNP alone, no CPT): 0.84 ± 0.07 M⁻¹

SMILES: CC(=O)N[C@@H](Cc1c[nH]c2ccccc12)C(N)=O [NATA, N-acetyl-L-tryptophanamide]
Ksv of acrylamide quenching of NATA fluorescence ([3]; positive control, fully solvent-exposed tryptophan, no Pgp): 15.43 ± 0.37 M⁻¹

SMILES: CCc1c2c(nc3ccc(O)cc13)-c1cc3c(c(=O)n1C2)COC(=O)[C@]3(O)CC [SN-38]
Probability density difference (∆PD) of tallest population relative to apo ([1]; 30 µM drug): −1.08 × 10^7
C-side height of tallest Pgp population in presence of drug ([1]; 30 µM drug, apo 84 ± 5 Å): 78 ± 7 Å
Ksv of acrylamide quenching of Pgp fluorescence ([3]; 30 µM drug, 3.2 mM AMPPNP): 0.81 ± 0.08 M⁻¹
Ksv of acrylamide quenching of Pgp fluorescence ([3]; 30 µM drug, absence of AMPPNP, apoPgp 1.58 ± 0.03): 1.12 ± 0.02 M⁻¹
Decrease in the Ksv value of apoPgp (acrylamide quenching) ([3]; 30 µM drug, no AMPPNP (Figure 4)): ~ 28%
Kd ([5]; absence of AMPPNP): 3.53 ± 1.14 µM
Kd ([5]; saturating (3.2 mM) AMPPNP): 13.2 ± 4.23 µM
Decrease of protein fluorescence from the initial fluorescence ([6]; 60 µM drug, absence of AMPPNP): ~40.6%
Decrease of protein fluorescence ([6]; 60 µM drug): 38.8%
Stern–Volmer constant (Ksv) of drug-induced Pgp fluorescence quenching ([6]; absence of AMPPNP): 0.28 ± 0.09 µM⁻¹
Change of affinity for Pgp in the presence of AMPPNP ([6]; presence vs absence of AMPPNP): diminished by over threefold
Stern–Volmer constant (Ksv) of drug-induced Pgp fluorescence quenching ([6]; saturating (3.2 mM) AMPPNP): 0.076 ± 0.02 µM⁻¹
Fold higher cellular retention than TPT [7]: > 2 fold

C-side height of tallest Pgp population in presence of drug ([1]; 100 µM drug, apo 76 ± 9 Å): 70 ± 10 Å
Decrease in the Ksv value of apoPgp (acrylamide quenching) [3]: ~ 20%
Ksv of acrylamide quenching of Pgp fluorescence [3]: 0.83 ± 0.05 and 0.83 ± 0.05 M^−1
Highest STDD amplification factor [4]: ~81
Change of affinity for Pgp in the presence of AMPPNP [6]: diminished by over threefold
Stern–Volmer constant (Ksv) of drug-induced Pgp fluorescence quenching [6]: 0.07 ± 0.01 µM⁻¹
SMILES: CCc1c2c(nc3ccc(OC(=O)N4CCC(N5CCCCC5)CC4)cc13)-c1cc3c(c(=O)n1C2)COC(=O)[C@]3(O)CC [IRT, Irinotecan]
Survival rate of patients compared with TPT [8]: higher survival rate
Efficacy compared with TPT [9]: greater efficacy

Reference: paper PMC10671697, “Drug-Induced Conformational Dynamics of P-Glycoprotein Underlies the Transport of Camptothecin Analogs” (International Journal of Molecular Sciences, 2023)
